Target: T1, human vasopressin V1b receptor (Homo sapiens, UniProt P47901)
T1 construct: expressed in transfected cells; host or cells: CHO-K1 (cell line hV1b_3H2_CHO), membrane preparation
T1 sequence (P47901 1-424): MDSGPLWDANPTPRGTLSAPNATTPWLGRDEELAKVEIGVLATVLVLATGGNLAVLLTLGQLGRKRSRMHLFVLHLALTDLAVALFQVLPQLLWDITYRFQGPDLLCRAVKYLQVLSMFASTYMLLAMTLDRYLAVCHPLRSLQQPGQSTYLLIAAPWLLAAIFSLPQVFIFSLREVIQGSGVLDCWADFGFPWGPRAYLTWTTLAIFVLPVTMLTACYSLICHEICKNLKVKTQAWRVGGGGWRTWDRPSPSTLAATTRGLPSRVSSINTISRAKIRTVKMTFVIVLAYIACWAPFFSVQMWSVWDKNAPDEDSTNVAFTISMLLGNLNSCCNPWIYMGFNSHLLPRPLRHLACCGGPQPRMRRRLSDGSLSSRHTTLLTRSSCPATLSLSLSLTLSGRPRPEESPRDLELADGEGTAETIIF
Experiment: Vasopressin V1b receptor binding test
Settings: membranes of CHO-K1 cells with human V1b receptor, displacement of 1.5 nM 3H-AVP; for compounds with more than one stereogenic center the diastereomer with greater affinity
Description: Vasopressin V1b Receptor Binding Test:
The test substances were dissolved at a concentration of 10^−2 M in DMSO, and were further diluted to 5×10^−4 M to 5×10^−9 M in DMSO. This DMSO predilution series was diluted 1:10 with test buffer. In the test assay the substance concentration was further diluted to 1:5 (2% DMSO in the assay).
The membrane pellet was homogenized again as described and centrifuged, and was then taken up in 50 mM tris-HCl at pH 7.4, homogenized, and frozen in aliquots at −190° C. and stored in liquid nitrogen.
The incubation buffer was 50 mM tris, 10 mM MgCl2, and 0.1% BSA at pH 7.4. […] The nonspecific binding was determined using 1 μM AVP (Bachem #H1780). All determinations were performed in triplicate. After incubation (60 minutes at room temperature), the free radioligand was filtered off by vacuum filtration (Skatron 7000 cell harvester) through Wathman GF/B fiberglass filter mats, and the filters were transferred to scintillation vessels. The liquid scintillation measurement was conducted in a Model 2000 or 2200CA TriCarb unit (Packard). The measured cpm was converted to dpm using a standard quench series.
The binding parameters were calculated by nonlinear regression in SAS.
The affinities of the compounds according to the invention for human vasopressin receptor V1b were measured according to the above test, and the affinity constants (Ki) were determined.

Ki [nM] | SMILES
10 to 100 | COCCN(C)Cc1ccc(C2(N3CCC[C@H]3c3ncco3)C(=O)N(S(=O)(=O)c3ccc(OC)cc3)c3ccc(Cl)cc32)c(OC)c1 (stereo partly drawn) [Example 22, 5-Chloro-1-(4-methoxybenzenesulfonyl)-3-(2-methoxy-4-{[(2-methoxyethyl)methylamino]methyl}phenyl)-3-((S)-2-oxazol-2-yl-pyrrolidin-1-yl)-1,3-dihydroindol-2-one]
< 10 | COc1ccc(S(=O)(=O)N2C(=O)C(c3ccc(CN4CCN(C)CC4)cc3OC)(N3CCC[C@H]3c3ncco3)c3cc(Cl)ccc32)cc1 (stereo partly drawn) [Example 23, 5-Chloro-1-(4-methoxybenzenesulfonyl)-3-[2-methoxy-4-(4-methylpiperazin-1-ylmethyl)phenyl]-3-((S)-2-oxazol-2-yl-pyrrolidin-1-yl)-1,3-dihydroindol-2-one]
< 10 | COc1ccc(S(=O)(=O)N2C(=O)C(c3ccc(CN4CCNCC4)cc3OC)(N3CCC[C@H]3c3ncco3)c3cc(Cl)ccc32)cc1 (stereo partly drawn) [Example 24, 5-Chloro-1-(4-methoxybenzenesulfonyl)-3-(2-methoxy-4-piperazin-1-ylmethylphenyl)-3-((S)-2-oxazol-2-yl-pyrrolidin-1-yl)-1,3-dihydroindol-2-one]
< 10 | COc1ccc(S(=O)(=O)N2C(=O)C(c3ccc(CN4CCCC4)cc3OC)(N3CCC[C@H]3c3ncco3)c3cc(Cl)ccc32)cc1 (stereo partly drawn) [Example 25, 5-Chloro-1-(4-methoxybenzenesulfonyl)-3-(2-methoxy-4-pyrrolidin-1-ylmethylphenyl)-3-((S)-2-oxazol-2-yl-pyrrolidin-1-yl)-1,3-dihydroindol-2-one]
< 10 | COc1ccc(S(=O)(=O)N2C(=O)C(c3ccc(CN4CCCCC4)cc3OC)(N3CCC[C@H]3c3ncco3)c3cc(Cl)ccc32)cc1 (stereo partly drawn) [Example 26, 5-Chloro-1-(4-methoxybenzenesulfonyl)-3-(2-methoxy-4-piperidin-1-ylmethylphenyl)-3-((S)-2-oxazol-2-yl-pyrrolidin-1-yl)-1,3-dihydroindol-2-one]
100 to 1000 | COc1ccc(S(=O)(=O)N2C(=O)C(c3cc(CN(C)C)ccc3OC)(N3CCC[C@H]3c3ncco3)c3ccc(Cl)cc32)cc1 (stereo partly drawn) [Example 28, 6-Chloro-3-(5-dimethylaminomethyl-2-methoxyphenyl)-1-(4-methoxybenzenesulfonyl)-3-((S)-2-oxazol-2-yl-pyrrolidin-1-yl)-1,3-dihydroindol-2-one]
100 to 1000 | CCN(C)Cc1ccc(OC)c(C2(N3CCC[C@H]3c3ncco3)C(=O)N(S(=O)(=O)c3ccc(OC)cc3)c3cc(Cl)ccc32)c1 (stereo partly drawn) [Example 30, 6-Chloro-3-{5-[(ethylmethylamino)methyl]-2-methoxyphenyl}-1-(4-methoxybenzenesulfonyl)-3-((S)-2-oxazol-2-yl-pyrrolidin-1-yl)-1,3-dihydroindol-2-one]
100 to 1000 | CCN(CC)Cc1ccc(OC)c(C2(N3CCC[C@H]3c3ncco3)C(=O)N(S(=O)(=O)c3ccc(OC)cc3)c3cc(Cl)ccc32)c1 (stereo partly drawn) [Example 31, 6-Chloro-3-(5-diethylaminomethyl-2-methoxyphenyl)-1-(4-methoxybenzenesulfonyl)-3-((S)-2-oxazol-2-yl-pyrrolidin-1-yl)-1,3-dihydroindol-2-one]
100 to 1000 | CCCNCc1ccc(OC)c(C2(N3CCC[C@H]3c3ncco3)C(=O)N(S(=O)(=O)c3ccc(OC)cc3)c3cc(Cl)ccc32)c1 (stereo partly drawn) [Example 32, 6-Chloro-1-(4-methoxybenzenesulfonyl)-3-(2-methoxy-5-propylaminomethylphenyl)-3-((S)-2-oxazol-2-yl-pyrrolidin-1-yl)-1,3-dihydroindol-2-one]
100 to 1000 | COc1ccc(S(=O)(=O)N2C(=O)C(c3cc(CN(C)C(C)C)ccc3OC)(N3CCC[C@H]3c3ncco3)c3ccc(Cl)cc32)cc1 (stereo partly drawn) [Example 33, 6-Chloro-3-{5-[(isopropylmethylamino)methyl]-2-methoxyphenyl}-1-(4-methoxybenzenesulfonyl)-3-((S)-2-oxazol-2-yl-pyrrolidin-1-yl)-1,3-dihydroindol-2-one]

Reference: patent publication US8044079B2, “Substituted oxindole derivatives, medicaments containing said derivatives and use thereof” (Abbott GmbH & Co. KG, priority 2005, dated 2011)
